Test results taken from PubChem BioAssay (NCI).
Where “and” joins values, the source holds several entries; their conditions need not be identical. Equal entries are not always repeated.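 Step 1: Grow cells in 96-well plates. Step 2: Expose to compound for 48 hours at 5 concentrations. Step 3: Interpolate endpoints linearly; if unreached, use highest concentration. GI50 = concentration required for 50% inhibition of growth. Definition used: TGI = concentration required for complete inhibition of growth.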

Key:
Experiment in all cases: DTP human tumour cell line panel, 48 h
MDA-N = test system: MDA-N
A549 NSCLC = test system: A549 NSCLC
LOX IMVI melanoma = test system: LOX IMVI melanoma
786-0 renal = test system: 786-0 renal
SF-295 CNS = test system: SF-295 CNS
PC-3 prostate = test system: PC-3 prostate
DU-145 prostate = test system: DU-145 prostate
HOP-62 NSCLC = test system: HOP-62 NSCLC
NCI/ADR-RES ovarian = test system: NCI/ADR-RES ovarian
SF-539 CNS = test system: SF-539 CNS
SK-MEL-2 melanoma = test system: SK-MEL-2 melanoma

Row | Structure (SMILES) | TGI (MDA-N) | TGI (A549 NSCLC) | TGI (LOX IMVI melanoma) | TGI (786-0 renal) | TGI (SF-295 CNS) | TGI (PC-3 prostate) | TGI (DU-145 prostate) | TGI (HOP-62 NSCLC) | TGI (NCI/ADR-RES ovarian) | TGI (SF-539 CNS) | TGI (SK-MEL-2 melanoma) | GI50 (A549 NSCLC) | GI50 (LOX IMVI melanoma) | GI50 (SK-MEL-2 melanoma) | GI50 (SF-295 CNS) | GI50 (PC-3 prostate) | GI50 (NCI/ADR-RES ovarian) | GI50 (SF-539 CNS) | GI50 (HOP-62 NSCLC)
1 | CSc1nc(NC2CCCC2)c2cc[nH]c2n1 | > 100 µM | > 100 µM | > 100 µM | > 100 µM | > 100 µM | > 100 µM | > 100 µM | > 100 µM | > 100 µM | > 100 µM | – | – | – | – | – | – | – | – | –
2 | CSc1c(C(=O)Nc2ccccc2)c(N)nn1-c1ccccc1 | > 100 µM | > 100 µM | > 100 µM | > 100 µM | – | > 100 µM | > 100 µM | – | > 100 µM | > 100 µM | > 100 µM | – | – | – | – | – | – | – | –
3 | O=C(c1ccc(Cl)cc1)c1ccc(OCC(=O)N2CCN(c3ccccc3)CC2)cc1 | – | > 100 µM | > 100 µM | > 100 µM | > 100 µM | – | – | > 100 µM | – | > 100 µM | > 100 µM | – | – | – | – | – | – | – | –
4 | O=C(CSc1nc2ccccc2[nH]1)Nc1ccc(-c2nc3ccccc3s2)c(Cl)c1 | – | > 100 µM | > 100 µM | – | > 100 µM | > 100 µM | – | – | > 100 µM | 3.25 µM | > 100 µM | 3.25 µM | 4.95 µM | 7.44 µM | 3.63 µM | 2.83 µM | 4.41 µM | 1.7 µM | –
5 | CC1=NOC2(C1)/C(=N/O)CCC/C2=N\O (configuration not stated) | > 100 µM | > 100 µM | > 100 µM | > 100 µM | > 100 µM | > 100 µM | – | > 100 µM | > 100 µM | > 100 µM | > 100 µM | – | – | – | – | – | – | – | –
6 | CCOC(=O)/C(=C\NCC(O)c1ccccc1)c1nc2ccccc2[nH]1 (configuration not stated) | 82.7 µM | > 100 µM | 37.7 µM | > 100 µM | 67 µM | – | > 100 µM | > 100 µM | 67.9 µM | 47.8 µM | – | – | – | – | – | – | – | – | –
7 | CC1(C)OC2OC(COC(=O)C=[N+]=[N-])C3OC(C)(C)OC3C2O1 (configuration not stated) | > 100 µM | – | > 100 µM | > 100 µM | > 100 µM | > 100 µM | > 100 µM | > 100 µM | – | – | > 100 µM | – | – | – | – | – | – | – | –
8 | Cc1ccc2c(=O)cc(-c3csc4ccccc34)[nH]c2n1 | < 0.01 µM | 19.5 µM | > 100 µM | 16 µM | 0.0101 µM | 0.0198 µM | 1.09 µM | 21.8 µM | 0.569 µM | < 0.0133 µM | – | – | – | – | – | – | – | – | –
9 | C=CC[C@H]1[C@@H](O[Si](C)(C)C(C)(C)C)[C@H](n2ccc(=O)[nH]c2=O)O[C@@H]1CO[Si](C)(C)C(C)(C)C | – | 5.8 µM | 3.44 µM | 3.01 µM | 3.93 µM | 5.89 µM | 6.64 µM | 4 µM | 4.95 µM | 10.4 µM | 7.08 µM | – | – | – | – | – | – | – | –
10 | Cn1c(=O)c2c(nc(NCCCCl)n2CC(=O)O)n(C)c1=O | > 100 µM | > 100 µM | > 100 µM | > 100 µM | > 100 µM | > 100 µM | > 100 µM | > 100 µM | > 100 µM | – | > 100 µM | – | – | – | – | – | – | – | –
11 | COc1ccc(N(C(=O)Nc2ccc(Cl)c(Cl)c2)c2ccccc2)cc1 | > 10 µM | > 10 µM | > 10 µM | > 10 µM | > 10 µM | > 10 µM | > 10 µM | > 10 µM | > 10 µM | > 10 µM | – | – | – | – | – | – | – | – | –
12 | CCC1C(=O)C[C@H]2[C@@H]3C(O)CC4=CC(=O)CC[C@]4(C)[C@H]3CC[C@]12C (some centres not stated) | – | > 50 µM | > 50 µM | > 50 µM | > 50 µM | > 50 µM | > 50 µM | > 50 µM | > 50 µM | > 50 µM | > 50 µM | – | – | – | – | – | – | – | –
13 | CCCCOC(=O)CNC(=O)OCCCCC#CC#CCCCCOC(=O)NCC(=O)OCCCC | – | > 100 µM | > 100 µM | > 100 µM | > 100 µM | – | – | > 100 µM | – | > 100 µM | – | – | – | – | – | – | – | – | –
14 | COc1cc(-c2nc3cc(F)ccc3s2)ccc1O | > 100 µM | > 100 µM | > 100 µM | > 100 µM | > 100 µM | > 100 µM | > 100 µM | – | > 100 µM | > 100 µM | > 100 µM | – | – | – | – | – | – | – | –
15 | CCOC(C[Se]CC(OCC)OCC)OCC | > 100 µM | > 100 µM | 59.4 µM | > 100 µM | > 100 µM | > 100 µM | 85.7 µM | – | > 100 µM | 62.4 µM | > 100 µM | – | – | – | – | – | – | – | –
16 | COC1=CC(=O)c2ccccc2C1(CCC=C(C)C)C1=NC(C)(C)CO1 (configuration not stated) | – | > 100 µM | – | > 100 µM | > 100 µM | – | – | > 100 µM | – | > 100 µM | > 100 µM | – | – | – | – | – | – | – | –
17 | CCCCOC(=O)C(=O)C(CCC(=O)c1ccc(C)cc1)C(=O)C=C(C)C (configuration not stated) | > 100 µM | > 100 µM | > 100 µM | > 100 µM | > 100 µM | > 100 µM | – | > 100 µM | > 100 µM | > 100 µM | > 100 µM | – | – | – | – | – | – | – | –
18 | COc1cccc2cc(C)c(C(=O)c3ccccc3)nc12 | – | > 100 µM | > 100 µM | > 100 µM | > 100 µM | – | – | > 100 µM | – | > 100 µM | > 100 µM | – | – | – | – | – | – | – | –
19 | CC(C)C[C@H](NC(=O)[C@H](Cc1cccc2ccccc12)NC(=O)N1CCOCC1)B(O)O | – | 0.267 µM | 0.00304 µM | 0.199 µM and 1.09 µM | – | 0.0191 µM and < 0.0235 µM | 0.116 µM and < 0.0249 µM | 0.0137 µM and < 0.018 µM | – | 0.00032 µM | 0.00251 µM and < 0.0159 µM | 0.00609 µM | 0.00114 µM | 0.00068 µM | – | 0.00473 µM | 0.267 µM | 0.000154 µM | 0.00383 µM
20 | COc1ccc(N2C=Nn3c(nc4sc(C)c(C)c4c3=O)C2)cc1 | > 100 µM | > 100 µM | > 100 µM | > 100 µM | > 100 µM | > 100 µM | > 100 µM | > 100 µM | > 100 µM | – | > 100 µM | – | – | – | – | – | – | – | –
21 | CCCCCc1cc(OC(=O)c2c(O)cc(OC)cc2CCCCC)cc(O)c1C(=O)O | – | 35.6 µM | 33.1 µM | 30.3 µM | 35.4 µM | – | – | 30.7 µM | – | 30.5 µM | 31.6 µM | – | – | – | – | – | – | – | –
22 | CC(C)CCCC(C)[C@H]1CCC2[C@@H]3CCC4Cc5nc6c(nc5C[C@]4(C)C3CC[C@@]21C)CC1CC[C@@H]2C(C[C@@H](O)[C@@]3(C)C2C[C@@H]2OC4(CCC(C)CO4)C(C)[C@@H]23)[C@@]1(C)C6 (some centres not stated) | > 100 µM | > 100 µM | – | > 100 µM | > 100 µM | > 100 µM | > 100 µM | > 100 µM | > 100 µM | > 100 µM | – | – | – | – | – | – | – | – | –
